From patent publication US20240174727A1, “LONG-ACTING NATRIURETIC PEPTIDES AND USES THEREOF” (Eli Lilly and Company, priority 2022, published 2024) come the findings set out here.

Values joined by “and” are separate entries in the source; they are usually repeats but may differ in a detail not shown here. Equal values may be shown once.

In one data set the target is human NPRA (human) (UniProt P16066). In words: cell-based or functional assay.
The nature of data set [1]: Pharmacokinetics in male Sprague Dawley rats. The class given is in vivo. To be noted: rat, sc, mean, single subcutaneous administration of 200 nMol/kg, plasma. The method, then: The pharmacokinetics of the exemplary analogs are evaluated following a single subcutaneous administration of […] to male Sprague Dawley rats. Blood samples are collected over 120 hours, and resulting individual plasma concentrations are used to calculate pharmacokinetic parameters. Peptide plasma (K3 EDTA) concentrations are determined using a qualified LC/MS method that measured the intact mass of the ANP polypeptide. Each peptide and an analog as an internal standard are extracted from 100% specie specified plasma using methanol with 0.1% formic acid. A Thermo Q-Exactive, High Resolution Instrument, and a Thermo Easy Spray PepMap are combined for LC/MS detection.

A further data set relates to SAUNA Mouse Model. The data set can be described thus: Salty drinking water/Unilateral Nephrectomy/Aldosterone (SAUNA) mouse model of heart failure. The class given is in vivo, male C57BL/6N mice. To be noted: SAUNA mice, once daily SC 0.4 mg/kg. From the text: The effect of Exemplary ANP polypeptides is investigated in the Salty drinking water/Unilateral Nephrectomy/Aldosterone (SAUNA) Mouse Model, murine model of heart failure induced by chronic aldosterone infusion. After acclimation for approximately 2 weeks, heart failure is induced in male C57BL/6N (Taconic) mice by uninephrectomy, continuous d-aldosterone infusion and 1.0% sodium chloride in drinking water for 4 weeks (Tanaka et al., 2016; Valero-Munoz, Li, Wilson, Boldbaatar, et al., 2016; Valero-Munoz, Li, Wilson, Hulsmans, et al., 2016; Yang, Kong, Shuai, Zhang, & Huang, 2020; Yoon et al., 2021). […] The pressure volume (PV) catheter is introduced into the left ventricle via apical stab with a 27G needle. Calibration of the PV catheter is performed according to the manufacturer's instructions. Data are analyzed with LabChart pro software (AD Instruments). After PV loop measurements, mice are sacrificed, and ratio of heart weight to tibia length is used for indicator of hypertrophy.

Another data set addresses T1, rat NPRA (Rattus norvegicus, UniProt P18910).
T1 construct: Full-Length cDNA Cloning and Generation of Cell Lines Overexpressing Natriuretic Peptide Receptors (NPRs); expressed in transfected cells; host or cells: Jump-in T-Rex HEK293 cells, pJTI R4 CMV-TO MCS pA vector, tetracycline induction
T1 sequence (P18910 29-1057): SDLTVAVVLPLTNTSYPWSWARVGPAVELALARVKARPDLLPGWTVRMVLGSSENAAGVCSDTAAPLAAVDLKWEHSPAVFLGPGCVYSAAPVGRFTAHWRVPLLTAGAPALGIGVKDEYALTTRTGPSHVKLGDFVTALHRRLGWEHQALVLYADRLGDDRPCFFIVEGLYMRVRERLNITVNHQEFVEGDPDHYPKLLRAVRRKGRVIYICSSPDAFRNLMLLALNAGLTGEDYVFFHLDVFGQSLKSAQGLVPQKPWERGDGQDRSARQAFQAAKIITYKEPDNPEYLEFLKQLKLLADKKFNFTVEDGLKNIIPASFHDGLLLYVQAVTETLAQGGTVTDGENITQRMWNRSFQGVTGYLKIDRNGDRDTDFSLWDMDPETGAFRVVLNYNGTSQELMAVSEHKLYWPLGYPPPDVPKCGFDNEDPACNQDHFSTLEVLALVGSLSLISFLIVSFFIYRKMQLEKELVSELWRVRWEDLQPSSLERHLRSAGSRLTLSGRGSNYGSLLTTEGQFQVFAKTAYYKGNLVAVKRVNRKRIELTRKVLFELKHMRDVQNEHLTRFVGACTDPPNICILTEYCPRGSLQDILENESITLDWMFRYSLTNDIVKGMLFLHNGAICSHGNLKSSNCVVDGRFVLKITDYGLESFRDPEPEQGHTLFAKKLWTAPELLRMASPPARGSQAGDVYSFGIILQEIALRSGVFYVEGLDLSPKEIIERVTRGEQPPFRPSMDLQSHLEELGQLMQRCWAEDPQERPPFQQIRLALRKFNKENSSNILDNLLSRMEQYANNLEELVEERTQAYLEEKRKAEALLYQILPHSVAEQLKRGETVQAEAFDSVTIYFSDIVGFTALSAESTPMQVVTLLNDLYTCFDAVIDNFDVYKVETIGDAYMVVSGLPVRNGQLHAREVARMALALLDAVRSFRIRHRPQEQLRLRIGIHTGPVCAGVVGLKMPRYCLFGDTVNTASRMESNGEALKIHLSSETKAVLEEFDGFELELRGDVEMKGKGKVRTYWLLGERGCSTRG
The data set can be described thus: Rat NPRA cGMP activity assay (HTRF) in HEK293 cells overexpressing NPRA. The format is cell-based. To be noted: assay buffer with 0.1% casein, read-out: cGMP Assay (EC50, pM) w/Casein rNPRA. The method, boiled down: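 Tetracycline-induced (300 ng/mL, 48 h) T-Rex HEK293 cells expressing NPRA, 4000 cells/well, treated 40 min at room temperature with polypeptide (8 points, 10 μM to 1 pM) in HBSS/HEPES buffer with 0.5 mM IBMX, pH 7.4. cGMP by HTRF, normalised to 100 nM amidated rat ANP and buffer.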

Data set [2] concerns the target rat NPRB (natriuretic peptide receptor B) (rat) (UniProt P16067). The data set can be described thus: cell-based or functional assay.
Data set [3] has as its target human NPRB (natriuretic peptide receptor B) (human) (UniProt P20594). In words: cell-based or functional assay.

Sequence of human NPRA (human) (P16066 33-1061): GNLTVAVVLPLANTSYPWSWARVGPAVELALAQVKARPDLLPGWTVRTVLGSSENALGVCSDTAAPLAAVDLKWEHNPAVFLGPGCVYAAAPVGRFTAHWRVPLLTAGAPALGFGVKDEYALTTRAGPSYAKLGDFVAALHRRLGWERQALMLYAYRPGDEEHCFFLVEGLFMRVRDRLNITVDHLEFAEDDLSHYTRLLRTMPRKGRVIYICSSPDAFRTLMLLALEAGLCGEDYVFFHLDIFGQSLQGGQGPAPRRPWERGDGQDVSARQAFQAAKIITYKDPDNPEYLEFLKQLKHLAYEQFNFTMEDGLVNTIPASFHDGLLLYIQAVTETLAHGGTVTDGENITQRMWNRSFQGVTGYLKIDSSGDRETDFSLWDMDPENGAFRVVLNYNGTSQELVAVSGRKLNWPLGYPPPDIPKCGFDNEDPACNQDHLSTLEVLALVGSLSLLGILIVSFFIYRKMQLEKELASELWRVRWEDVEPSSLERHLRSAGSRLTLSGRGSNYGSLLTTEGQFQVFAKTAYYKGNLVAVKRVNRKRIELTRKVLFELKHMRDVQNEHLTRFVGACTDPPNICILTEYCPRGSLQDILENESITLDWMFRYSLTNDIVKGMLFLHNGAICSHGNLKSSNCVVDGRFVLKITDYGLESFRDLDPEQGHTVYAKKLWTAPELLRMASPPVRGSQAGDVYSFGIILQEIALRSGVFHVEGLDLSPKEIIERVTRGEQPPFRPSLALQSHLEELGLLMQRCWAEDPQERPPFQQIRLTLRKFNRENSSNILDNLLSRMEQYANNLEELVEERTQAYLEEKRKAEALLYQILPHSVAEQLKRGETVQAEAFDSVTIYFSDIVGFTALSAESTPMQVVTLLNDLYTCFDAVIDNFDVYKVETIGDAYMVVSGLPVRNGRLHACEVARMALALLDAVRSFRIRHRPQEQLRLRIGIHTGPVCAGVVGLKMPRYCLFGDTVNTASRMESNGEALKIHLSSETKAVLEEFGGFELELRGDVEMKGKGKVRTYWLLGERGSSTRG
Sequence of rat NPRB (natriuretic peptide receptor B) (rat) (P16067 17-1047): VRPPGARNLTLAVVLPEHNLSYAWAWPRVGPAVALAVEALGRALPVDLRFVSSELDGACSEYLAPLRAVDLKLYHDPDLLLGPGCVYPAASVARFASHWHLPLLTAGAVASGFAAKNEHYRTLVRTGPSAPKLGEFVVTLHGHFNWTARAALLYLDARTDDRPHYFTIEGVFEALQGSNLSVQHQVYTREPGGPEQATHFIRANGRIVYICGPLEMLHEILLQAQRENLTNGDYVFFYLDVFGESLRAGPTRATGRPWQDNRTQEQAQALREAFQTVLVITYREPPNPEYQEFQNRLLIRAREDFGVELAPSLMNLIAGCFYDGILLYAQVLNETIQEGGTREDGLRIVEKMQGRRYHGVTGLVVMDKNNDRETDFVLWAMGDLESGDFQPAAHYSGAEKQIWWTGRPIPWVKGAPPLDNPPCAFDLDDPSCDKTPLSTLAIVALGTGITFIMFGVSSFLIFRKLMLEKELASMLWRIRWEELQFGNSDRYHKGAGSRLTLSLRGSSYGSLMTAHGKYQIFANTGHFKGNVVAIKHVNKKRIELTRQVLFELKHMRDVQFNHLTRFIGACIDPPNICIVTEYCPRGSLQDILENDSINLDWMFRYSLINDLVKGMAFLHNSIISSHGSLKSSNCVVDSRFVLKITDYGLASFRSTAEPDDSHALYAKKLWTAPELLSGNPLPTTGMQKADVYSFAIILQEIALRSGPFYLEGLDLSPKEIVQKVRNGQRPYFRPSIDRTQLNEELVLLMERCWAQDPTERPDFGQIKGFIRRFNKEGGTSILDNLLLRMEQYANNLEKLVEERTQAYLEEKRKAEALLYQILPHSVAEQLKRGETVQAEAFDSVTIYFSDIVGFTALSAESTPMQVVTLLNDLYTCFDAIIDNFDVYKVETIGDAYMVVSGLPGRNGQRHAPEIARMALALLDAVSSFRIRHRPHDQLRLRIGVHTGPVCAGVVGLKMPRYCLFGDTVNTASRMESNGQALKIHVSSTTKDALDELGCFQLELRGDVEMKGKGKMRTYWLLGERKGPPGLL
Sequence of human NPRB (natriuretic peptide receptor B) (human) (P20594 23-1047): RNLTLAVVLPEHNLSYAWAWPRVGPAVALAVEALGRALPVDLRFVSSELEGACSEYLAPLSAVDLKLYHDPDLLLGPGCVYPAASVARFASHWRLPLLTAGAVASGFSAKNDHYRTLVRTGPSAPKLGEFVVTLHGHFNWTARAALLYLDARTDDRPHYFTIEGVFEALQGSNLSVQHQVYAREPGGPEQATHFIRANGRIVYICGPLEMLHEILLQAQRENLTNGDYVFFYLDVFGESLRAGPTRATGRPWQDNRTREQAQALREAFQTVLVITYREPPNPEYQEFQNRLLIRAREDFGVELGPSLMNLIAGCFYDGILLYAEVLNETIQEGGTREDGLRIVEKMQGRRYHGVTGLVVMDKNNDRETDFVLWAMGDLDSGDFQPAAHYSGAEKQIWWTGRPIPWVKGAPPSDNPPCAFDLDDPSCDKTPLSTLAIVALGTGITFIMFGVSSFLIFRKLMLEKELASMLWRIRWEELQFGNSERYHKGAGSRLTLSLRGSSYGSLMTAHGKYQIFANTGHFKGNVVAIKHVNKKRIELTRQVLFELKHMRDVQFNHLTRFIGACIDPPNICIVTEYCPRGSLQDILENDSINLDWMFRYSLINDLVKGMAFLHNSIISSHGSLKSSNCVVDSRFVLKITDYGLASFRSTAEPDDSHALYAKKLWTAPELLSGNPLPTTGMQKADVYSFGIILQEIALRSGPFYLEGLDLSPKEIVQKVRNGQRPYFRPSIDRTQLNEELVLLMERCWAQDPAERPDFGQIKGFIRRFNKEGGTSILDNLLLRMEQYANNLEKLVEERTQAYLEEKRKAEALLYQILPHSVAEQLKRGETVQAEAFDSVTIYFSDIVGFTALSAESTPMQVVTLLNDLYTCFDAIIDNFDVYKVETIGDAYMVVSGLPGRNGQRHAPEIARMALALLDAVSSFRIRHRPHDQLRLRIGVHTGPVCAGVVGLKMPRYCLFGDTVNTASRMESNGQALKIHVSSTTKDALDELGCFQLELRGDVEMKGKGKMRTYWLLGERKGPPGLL

With “HOOC-(CH2)18-CO-(γGlu)-EKEKEKG-PEG24-EK-βAla-RSS[…]PSFRHGGP-NH2 (peptide)”, in the data set with human NPRA (human), the cGMP Assay (EC50, pM) w/BSA, hNPRA is 2960 pM and 1270 pM; the cGMP Assay (EC50, pM) w/Casein, hNPRA is 1010 pM and 669 pM.
As for `CC[C@H](C)[C@@H]1NC(=O)[C@H](CCCNC(=N)N)NC(=O)[C@H](CC(=O)O)NC(=O)[C@H]([C@@H](C)CC)NC(=O)[C@H](CCCNC(=N)N)NC(=O)CNC(=O)CNC(=O)[C@H](Cc2ccccc2)NC(=O)[C@@H](NC(=O)[C@H](CO)NC(=O)[C@H](CO)NC(=O)[C@H](CCCNC(=N)N)NC(=O)[C@H](CCCNC(=N)N)NC(=O)[C@H](CC(C)C)NC(=O)[C@H](CO)NC(=O)CNC(=O)[C@H](CCCCN)NC(=O)[C@H](CCC(=O)O)NC(=O)[C@H](CCCCN)NC(=O)[C@H](CCC(=O)O)NC(=O)[C@H](CCCCN)NC(=O)[C@H](CCC(=O)O)NC(=O)CC[C@H](NC(=O)CCCCCCCCCCCCCCCCCCC(=O)O)C(=O)O)CSSC[C@@H](C(=O)N[C@@H](CC(N)=O)C(=O)N[C@@H](CO)C(=O)N[C@@H](Cc2ccccc2)C(=O)N[C@@H](CCCNC(=N)N)C(=O)N[C@@H](Cc2ccc(O)cc2)C(N)=O)NC(=O)CNC(=O)[C@H](CC(C)C)NC(=O)CNC(=O)[C@H](CO)NC(=O)[C@H](CCC(N)=O)NC(=O)[C@H](C)NC(=O)CNC1=O` [Example 8], the CL/F in data set [1] was 0.0419 L/h/kg. The half-life in data set [1] (read-out: t½ (converted)) is 15 h. For the same compound, in the data set on SAUNA Mouse Model, the blood pressure entry is reported as “decrease in blood pressure”. The “left ventricle diastolic pressure” value with SAUNA Mouse Model (PV catheter) was “reduced left ventricle diastolic pressure”. Further, the “heart weight and tibia length” value with SAUNA Mouse Model (indicator of hypertrophy) is on record as “decrease”. The EC50 at rat NPRA worked out at 493 pM.
Turning to “human CNP-22 (from UniProt P23582 105-126) (peptide)”, the cGMP production (HTRF) in HEK293 cells overexpressing NPRB; concentration that defines the 100% response in data set [2] and in data set [3] was 1 µM throughout.
